Test results: article PMC10046369, “Low-Affinity/High-Selectivity Dopamine Transport Inhibition Sufficient to Rescue Cognitive Functions in the Aging Rat” (Biomolecules, 2023)
Blank lines part the entries; values can stand above or below the compound they belong to.

Assays:
Assay in all cases: cell-based
Parameters in all cases: Eurofins Cerep functional GPCR antagonist assay, reference antagonists
5HT1B (h) [1] = biological target: T1, 5HT1B (h) (Homo sapiens, UniProt P28222)
T1 construct: gene HTR1B
T1 sequence (P28222 whole entry): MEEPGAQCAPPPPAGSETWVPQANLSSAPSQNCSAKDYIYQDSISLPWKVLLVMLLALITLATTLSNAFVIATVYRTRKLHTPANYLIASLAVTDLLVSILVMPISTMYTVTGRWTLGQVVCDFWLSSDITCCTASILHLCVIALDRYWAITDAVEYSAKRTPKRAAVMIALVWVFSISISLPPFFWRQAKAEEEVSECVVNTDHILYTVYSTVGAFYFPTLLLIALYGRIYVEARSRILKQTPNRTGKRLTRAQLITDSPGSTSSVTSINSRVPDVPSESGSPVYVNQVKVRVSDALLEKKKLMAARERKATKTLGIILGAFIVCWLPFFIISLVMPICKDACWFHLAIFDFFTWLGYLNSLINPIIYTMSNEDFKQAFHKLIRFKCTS

5HT1B (h) [2] = biological target: T1, 5HT1B (h); remark: listed apart in the source
P2Y1 (h) [3] = biological target: T2, P2Y1 (h) (Homo sapiens, UniProt P47900)
T2 construct: gene P2RY1
T2 sequence (P47900 whole entry): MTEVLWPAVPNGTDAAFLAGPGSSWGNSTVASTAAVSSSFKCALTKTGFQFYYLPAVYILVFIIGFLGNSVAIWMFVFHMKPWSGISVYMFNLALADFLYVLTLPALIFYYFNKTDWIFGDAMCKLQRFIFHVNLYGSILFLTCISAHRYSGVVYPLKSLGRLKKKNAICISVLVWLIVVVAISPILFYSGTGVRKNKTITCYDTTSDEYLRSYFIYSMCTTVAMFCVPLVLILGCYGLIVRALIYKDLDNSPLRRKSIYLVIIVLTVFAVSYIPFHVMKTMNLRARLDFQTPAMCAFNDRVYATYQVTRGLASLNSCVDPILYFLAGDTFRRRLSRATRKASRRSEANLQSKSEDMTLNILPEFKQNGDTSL

P2Y1 (h) [4] = biological target: T2, P2Y1 (h); remark: listed apart in the source
5-HT2B (h) [5] = biological target: T3, 5-HT2B (h) (Homo sapiens, UniProt P41595)
T3 construct: gene HTR2B
T3 sequence (P41595 whole entry): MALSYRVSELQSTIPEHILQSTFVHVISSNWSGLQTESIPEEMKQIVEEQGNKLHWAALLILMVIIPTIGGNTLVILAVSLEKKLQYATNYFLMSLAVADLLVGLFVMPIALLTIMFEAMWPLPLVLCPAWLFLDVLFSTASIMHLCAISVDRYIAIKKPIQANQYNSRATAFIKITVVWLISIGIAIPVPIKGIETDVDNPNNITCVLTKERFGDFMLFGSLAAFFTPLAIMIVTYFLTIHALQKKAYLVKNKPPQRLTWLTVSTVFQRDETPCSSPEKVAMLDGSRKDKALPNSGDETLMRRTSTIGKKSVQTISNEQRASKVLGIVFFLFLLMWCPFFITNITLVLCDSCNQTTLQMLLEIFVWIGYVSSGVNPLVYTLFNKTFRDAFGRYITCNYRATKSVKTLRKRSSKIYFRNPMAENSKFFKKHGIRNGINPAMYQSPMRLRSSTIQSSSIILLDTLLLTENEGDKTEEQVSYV

5-HT2B (h) [6] = biological target: T3, 5-HT2B (h); remark: listed apart in the source

SMILES: CN(C)CCCc1cc(C(=O)Nc2ccc(-c3ccncc3)cc2)ccc1O [GR55562]
Kb (5HT1B (h) [1]): 11 nM
IC50 (5HT1B (h) [2]): 69 nM

SMILES: CNc1nc(I)nc2c1ncn2[C@H]1C[C@H](OP(=O)(O)O)[C@]2(COP(=O)(O)O)C[C@H]12 [MRS 2500]
Kb (P2Y1 (h) [3]): 0.43 nM
IC50 (P2Y1 (h) [4]): 1.9 nM

IC50 (5-HT2B (h) [5]): 19 nM
Kb (5-HT2B (h) [6]): 2.9 nM
SMILES: Cn1ccc2cc3c(cc21)CCN3C(=O)Nc1cccnc1 [SB 206553]
